Experimental data from patent US8680137B2, “Agents and methods for treating ischemic and other diseases” (Nono Inc., priority 2009, dated 2014).
pIC50: −log10 of the molar value. Counter-ions that a name gives are not always drawn. Like-named read-outs stand apart in the source and are kept apart here.

Tests used:
murine TRPM7 = murine TRPM7 (Mus musculus, UniProt Q923J1); assay: TRPM7-mediated cell death screen, Tet-induced Flag-murine TRPM7 HEK293 Trex cells in Mg2+-deficient HBSS, PI fluorescence
Protocol: In the present example, human embryonic kidney (HEK293 Trex) cells were stably transfected with a tetracycline inducible Flag-tagged TRPM7 construct.
This cell death can be measured, and the impact of a candidate TRPM7 modulator on this cell death can be measured. […] Cell death can also be measured by fluorescent measurements of propidium iodide and dihydrorhodamine.
Tet-inducible Flag-murine TRPM7/pcDNA4-TO HEK293 Trex cells are cultured in: MEM (Invitrogen) supplemented with 10% fetal bovine serum, 20 mM GlutaMAX-1, 100 units/ml penicillin G sodium, 100 units/ml streptomycin sulfate, 0.25 ug/ml amphotericin B, 5 ug/ml blasticidin, 0.4 mg/ml zeocin. (All reagent were obtained from Invitrogen)
Stably transfected Flag-murine TRPM7/pcDNA4-TO HEK293 Trex cells are thawed from frozen stock kept in liquid nitrogen, and cultured in culture medium for 5 days in 100 mm dishes (Costa). […] Cells used in the present experiments are kept to three passages or less. The cells are maintained at 37° C. with 5% CO2 in a humidified incubator. All culture plates and multi-well plates (Costa) are coated with poly-D-lysine. The coating with poly-D-lysine is performed using 0.1 mg/ml poly-D-lysine (P1045 Sigma) for 12 h at 37C, followed by four washes with sterilized D-PBS (Invitrogen) without MgCl2 and CaCl2.).
When 384 well plates are used, Cells are seeded at 1.3−1.5×10^4 cells/well. When 96 well plates are used, cells are seeded at 4−5×10^4 Cells/well. After 24 h TRPM7 expression is induced by adding tetracycline (Tet; 1 ug/ml) (Invitrogen) for 24 h, followed by wash with Mg deficient HBSS.
The test compounds were plated in 96 or 384 well formats, and initially used at a concentration of: 4 μM for compounds of the LOPAC library and 5 μM for each of the Prestwick and Maybridge libraries.
Cell death in the presence or absence of a test compound and/or under conditions of TRPM7 activation was determined by fluorescence measurements of PI (5-50 μg/ml).
In brief, B scores are a relative potency score based on the raw sample PI fluorescence value. They are the ratio of an adjusted raw PI fluorescence value in the numerator to a measure of variability in the denominator.
In another approach, used manually to validate the results of the HTS method, a multiwell plate fluorescence scanner (Fluorskan Ascent; Thermo Scientific) was used. The fraction of dead cells in each culture was calculated as: fraction DEAD=(Ft−Fo)/Fmax Where Ft=PI fluorescence of the sample at time t, Fo=initial PI fluorescence and Fmax=background subtracted PI fluorescence the same cultures after exposure to 100 μM triton-X. An alternative to this formula is a Control-based formula wherein the fraction dead=[Ft−F(−)t]/[F(+)t−F(−)t] where Ft=PI fluorescence of the sample at time t, F(−)t is the PI fluorescence of the negative control sample at time t, F(+)t is the PI fluorescence of the positive control sample at time t.
Screening was carried out in Tet-induced Flag-murine TRPM7/pcDNA4-TO HEK293 Trex cells.

TRPM7 = TRPM7 (Homo sapiens, UniProt Q96QT4); settings: Nadler et al., Jiang et al.; read-out: IC50 for inhibition of TRPM7; cited from earlier work
H9c2 cells = assay: OGD-induced cell death in H9c2 cardiomyocytes, PI uptake; type: cell-based, rat; settings: 6 hr anoxia + 2 hr recovery, gadolinium in buffer
Protocol: The rat cardiomyoblast cell line H9c2 was obtained from the American Type Culture Collection (CRL-1446) and cultured in Dulbecco's Modified Eagle Medium supplemented with 10% (v/v) heat-inactivated fetal bovine serum and 1% antibiotic-antimycotic. Cells were grown in an atmosphere of […]/5% CO2 in a humidified incubator.
H9c2 cells were made anoxic by replacing the medium with de-oxygenated Ischemic buffer (in mM: 1.13 CaCl2, 5 KCl, 0.3 KH2PO4, 0.5 MgCl2, 0.4 MgSO4, 128 NaCl, 10 HEPES) and by transferring them to an anaerobic chamber (5% CO2, 10% H2, 85% N2) for 6 hrs or 16 hrs at 37° C. OGD was terminated by washing the cells with oxygenated glucose-containing Control buffer (in mM: 1.13 CaCl2, 5 KCl, 0.3 KH2PO4, 0.5 MgCl2, 0.4 MgSO4, 128 NaCl, 10 HEPES 10 Glucose). Cultures were maintained for another 2 hrs at 37° C. in a humidified 5% CO2 atmosphere. Normoxic cells were maintained in Control buffer for the duration of the experiment.
Cell death was determined by fluorescence measurements of PI (5 μg/ml) using a multiwell plate fluorescence scanner. The fraction of dead cells in each culture was calculated as: fraction dead=(Ft−F0)/Fmax where Ft=PI fluorescence at 2 hrs post-OGD, F0=initial PI fluorescence immediately after the OGD treatment, and Fmax=PI fluorescence of the same cultures following 20 mins incubation in 1% TritonX-100.
H9c2 cells were cultured and subjected to OGD as described supra. FIG. 71 panels A and B show the results of exposure to M21 or M5 for 24 hours following 6 hours of OGD. FIG. 71 panels C and D show the results of H9c2cells were treated with either 1 mM Mg^2+, 5 μM M6, M11 (acute treatment) during the anoxic and recovery periods, or 1 μM nifedipine. Results are presented as mean±SEM (n=4).

[1] = LOPAC (4 μM) and Prestwick (5 μM) hits
[2] = LOPAC library, initial concentration 4 μM, HTS PI fluorescence
[3] = LOPAC library, manual replication
[4] = Prestwick library, initial concentration 5 μM, HTS PI fluorescence
[5] = Prestwick library, manual replication
[6] = Prestwick library, 39 nM to 20 μM

Chain of murine TRPM7 (Q923J1 whole entry): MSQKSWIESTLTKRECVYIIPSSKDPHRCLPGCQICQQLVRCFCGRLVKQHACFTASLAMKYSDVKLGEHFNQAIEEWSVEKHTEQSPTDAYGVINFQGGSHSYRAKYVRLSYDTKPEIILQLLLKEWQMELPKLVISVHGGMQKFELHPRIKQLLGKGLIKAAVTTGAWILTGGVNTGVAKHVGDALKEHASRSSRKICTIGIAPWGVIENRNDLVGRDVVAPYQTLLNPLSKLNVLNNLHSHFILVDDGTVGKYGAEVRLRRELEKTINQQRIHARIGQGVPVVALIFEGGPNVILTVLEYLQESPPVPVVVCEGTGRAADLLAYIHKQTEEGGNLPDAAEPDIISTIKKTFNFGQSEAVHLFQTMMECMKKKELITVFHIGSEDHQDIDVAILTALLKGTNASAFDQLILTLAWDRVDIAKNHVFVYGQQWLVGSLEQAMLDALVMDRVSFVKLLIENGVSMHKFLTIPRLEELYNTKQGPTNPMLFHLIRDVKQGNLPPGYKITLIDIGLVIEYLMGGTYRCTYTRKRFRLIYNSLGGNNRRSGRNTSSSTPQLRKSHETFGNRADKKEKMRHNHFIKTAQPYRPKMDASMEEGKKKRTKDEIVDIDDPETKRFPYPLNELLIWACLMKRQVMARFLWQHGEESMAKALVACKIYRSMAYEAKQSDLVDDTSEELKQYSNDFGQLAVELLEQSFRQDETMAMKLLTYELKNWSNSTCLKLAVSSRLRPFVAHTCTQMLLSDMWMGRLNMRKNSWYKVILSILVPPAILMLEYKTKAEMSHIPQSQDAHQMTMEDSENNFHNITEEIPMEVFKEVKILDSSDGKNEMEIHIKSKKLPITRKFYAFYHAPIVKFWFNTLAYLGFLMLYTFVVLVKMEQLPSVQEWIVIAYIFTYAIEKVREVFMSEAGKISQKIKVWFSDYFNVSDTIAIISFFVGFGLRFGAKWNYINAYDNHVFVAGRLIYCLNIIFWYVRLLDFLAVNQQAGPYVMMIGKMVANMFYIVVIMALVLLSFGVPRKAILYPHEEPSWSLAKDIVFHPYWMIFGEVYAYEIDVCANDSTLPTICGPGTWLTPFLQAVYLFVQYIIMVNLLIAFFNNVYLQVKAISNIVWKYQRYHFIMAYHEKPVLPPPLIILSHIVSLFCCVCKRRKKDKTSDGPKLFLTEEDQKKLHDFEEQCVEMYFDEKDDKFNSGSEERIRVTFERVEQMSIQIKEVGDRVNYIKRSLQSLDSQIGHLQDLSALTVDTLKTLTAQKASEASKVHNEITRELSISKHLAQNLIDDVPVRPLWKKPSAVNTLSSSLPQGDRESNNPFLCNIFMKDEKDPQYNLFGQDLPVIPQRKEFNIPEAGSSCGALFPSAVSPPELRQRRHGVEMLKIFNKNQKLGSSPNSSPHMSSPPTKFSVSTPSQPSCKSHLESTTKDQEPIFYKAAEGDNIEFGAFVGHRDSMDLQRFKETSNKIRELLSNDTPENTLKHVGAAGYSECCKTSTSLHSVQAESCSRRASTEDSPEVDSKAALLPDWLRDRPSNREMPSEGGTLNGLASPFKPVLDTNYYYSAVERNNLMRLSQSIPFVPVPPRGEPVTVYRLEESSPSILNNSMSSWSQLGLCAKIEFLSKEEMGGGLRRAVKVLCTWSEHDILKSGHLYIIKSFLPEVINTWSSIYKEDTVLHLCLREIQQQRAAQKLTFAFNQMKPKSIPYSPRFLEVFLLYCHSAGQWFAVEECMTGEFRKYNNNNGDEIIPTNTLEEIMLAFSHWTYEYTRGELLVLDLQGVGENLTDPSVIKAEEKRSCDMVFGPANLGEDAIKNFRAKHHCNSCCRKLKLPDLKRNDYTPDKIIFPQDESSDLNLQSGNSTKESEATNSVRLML
Chain of TRPM7 (Q96QT4 whole entry): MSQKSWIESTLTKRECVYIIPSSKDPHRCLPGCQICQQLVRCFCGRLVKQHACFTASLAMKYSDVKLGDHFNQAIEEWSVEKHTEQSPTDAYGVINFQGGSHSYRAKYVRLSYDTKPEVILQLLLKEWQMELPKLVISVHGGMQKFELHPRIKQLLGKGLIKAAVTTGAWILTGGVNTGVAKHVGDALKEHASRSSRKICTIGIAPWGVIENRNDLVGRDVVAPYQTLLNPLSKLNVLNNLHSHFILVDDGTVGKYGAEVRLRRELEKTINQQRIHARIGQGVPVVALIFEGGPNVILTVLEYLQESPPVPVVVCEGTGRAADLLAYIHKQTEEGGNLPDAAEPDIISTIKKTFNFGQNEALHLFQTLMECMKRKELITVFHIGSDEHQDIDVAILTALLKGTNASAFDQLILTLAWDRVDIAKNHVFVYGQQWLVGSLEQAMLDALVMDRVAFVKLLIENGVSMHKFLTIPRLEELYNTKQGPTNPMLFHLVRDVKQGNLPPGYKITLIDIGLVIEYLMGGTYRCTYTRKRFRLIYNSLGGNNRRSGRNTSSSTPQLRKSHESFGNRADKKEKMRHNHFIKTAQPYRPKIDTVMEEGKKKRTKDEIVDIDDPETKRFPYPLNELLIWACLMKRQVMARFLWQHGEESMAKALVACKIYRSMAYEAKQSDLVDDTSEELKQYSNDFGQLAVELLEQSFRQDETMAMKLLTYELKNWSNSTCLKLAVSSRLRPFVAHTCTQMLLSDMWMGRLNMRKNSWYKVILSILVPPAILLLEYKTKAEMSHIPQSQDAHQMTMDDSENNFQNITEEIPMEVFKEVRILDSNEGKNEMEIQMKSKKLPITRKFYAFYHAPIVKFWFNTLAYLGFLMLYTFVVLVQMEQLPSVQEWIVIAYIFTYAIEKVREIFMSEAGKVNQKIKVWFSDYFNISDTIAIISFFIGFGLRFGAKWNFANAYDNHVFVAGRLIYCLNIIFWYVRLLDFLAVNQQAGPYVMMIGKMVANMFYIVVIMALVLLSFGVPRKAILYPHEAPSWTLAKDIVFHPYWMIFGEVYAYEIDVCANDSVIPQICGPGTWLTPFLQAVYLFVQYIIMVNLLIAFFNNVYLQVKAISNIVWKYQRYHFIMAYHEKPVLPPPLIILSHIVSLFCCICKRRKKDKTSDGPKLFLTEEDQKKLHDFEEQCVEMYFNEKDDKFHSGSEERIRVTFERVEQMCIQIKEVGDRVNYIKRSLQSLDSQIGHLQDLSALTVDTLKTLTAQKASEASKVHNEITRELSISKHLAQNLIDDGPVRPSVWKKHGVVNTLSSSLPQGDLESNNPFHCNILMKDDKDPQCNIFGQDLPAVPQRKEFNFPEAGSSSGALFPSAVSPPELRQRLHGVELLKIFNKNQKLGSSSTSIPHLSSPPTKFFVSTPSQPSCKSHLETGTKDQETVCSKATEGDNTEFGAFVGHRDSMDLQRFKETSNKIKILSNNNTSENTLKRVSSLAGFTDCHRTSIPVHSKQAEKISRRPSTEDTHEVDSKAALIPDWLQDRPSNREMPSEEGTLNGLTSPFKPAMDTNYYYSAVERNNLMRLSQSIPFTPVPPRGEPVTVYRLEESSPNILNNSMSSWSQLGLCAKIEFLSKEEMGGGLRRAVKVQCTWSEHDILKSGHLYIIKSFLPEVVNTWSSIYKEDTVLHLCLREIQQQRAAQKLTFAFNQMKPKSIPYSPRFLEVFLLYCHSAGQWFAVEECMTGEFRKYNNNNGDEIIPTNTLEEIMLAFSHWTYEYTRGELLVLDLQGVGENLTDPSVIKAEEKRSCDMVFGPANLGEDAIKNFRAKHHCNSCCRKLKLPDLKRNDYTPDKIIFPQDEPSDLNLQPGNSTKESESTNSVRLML

SMILES | found to inhibit TRPM7-mediated cell injury (murine TRPM7; [1]) | Dose-Response (murine TRPM7; LOPAC library, 39 nM to 20 μM) | B Score (murine TRPM7; [2]) | Verification Ratio (murine TRPM7; [3]) | B Score (murine TRPM7; [4]) | Verification Ratio (murine TRPM7; [5]) | Dose-Response (murine TRPM7; [6]) | also measured
COc1ccccc1N1CCN(CC(O)COc2cccc3ccccc23)CC1 (centres unmarked) [Naftopidil dihydrochloride] | inhibit TRPM7-mediated cell injury | Yes | −7.535 | 0.2231 | −8.736 | 0.1346 | – | –
CC[C@@H](C(=O)[C@@H](C)[C@@H](O)[C@H](C)CCc1ccc(C)c(O)c1C(=O)O)[C@H]1O[C@](CC)([C@H]2CC[C@](O)(CC)[C@H](C)O2)C[C@@H]1C [Lasalocid sodium salt] | inhibit TRPM7-mediated cell injury | – | – | – | −5.54 | 0.6891 | – | –
Cc1cc(C2CCCCC2)n(O)c(=O)c1.NCCO [Ciclopirox ethanolamine] | inhibit TRPM7-mediated cell injury | – | – | – | −5.075 | 0.4227 | Yes | –
COc1cc(/C=C/C(=O)N2CCC=CC2=O)cc(OC)c1OC [Piperlongumine] | inhibit TRPM7-mediated cell injury | – | – | – | −9.599 | 0.7354 | Yes | –
C[n+]1cc2c3c(ccc2c2ccc4cc5c(cc4c21)OCO5)OCO3 [Sanguinarine chloride] | inhibit TRPM7-mediated cell injury | – | −6.158 | 0.8029 | – | – | – | –
O=C(O)c1cc(O)cc(C(=O)O)n1 [Chelidamic acid] | inhibit TRPM7-mediated cell injury | Yes | −12.502 | 1.287 | – | – | – | –
COC(=O)C1=C(C)NC(C)=C(C(=O)OCCN(C)Cc2ccccc2)C1c1cccc([N+](=O)[O-])c1 (centres unmarked) [Nicardipine hydrochloride] | inhibit TRPM7-mediated cell injury | – | – | – | −7.543 | 0.6651 | Yes | –
COc1cccc2c1C(=O)c1c(O)c3c(c(O)c1C2=O)C[C@@](O)(C(C)=O)C[C@@H]3O[C@H]1C[C@H](N)[C@H](O)[C@H](C)O1 [Daunorubicin hydrochloride] | inhibit TRPM7-mediated cell injury | – | – | – | −5.68 | 0.4598 | Yes | –
COc1cc2c(c(OC)c1OC)-c1ccc(OC)c(=O)cc1[C@@H](NC(C)=O)CC2 [Colchicine] | – | – | – | – | – | – | – | B Score (murine TRPM7): −7.343; Verification Ratio (murine TRPM7): 0.6723; found to inhibit TRPM7-mediated cell injury (murine TRPM7): inhibit TRPM7-mediated cell injury
[Mg+2] [Mg^2+] | – | – | – | – | – | – | – | pIC50 (TRPM7): ~3.22
COc1cccc2c1C(=O)c1c(O)c3c(c(O)c1C2=O)C[C@@](O)(C(=O)CO)C[C@@H]3O[C@H]1C[C@H](N)[C@H](O)[C@H](C)O1 [Doxorubicin hydrochloride] | inhibit TRPM7-mediated cell injury | – | – | – | −9.315 | 0.4588 | Yes | –
CC[C@H]1CN2CCc3cc(OC)c(OC)cc3[C@@H]2C[C@@H]1C[C@H]1NCCc2cc(O)c(OC)cc21.Cl.Cl.O.O.O.O.O.O.O [Cephaeline dihydrochloride heptahydrate] | inhibit TRPM7-mediated cell injury | – | – | – | −7.927 | 0.2271 | – | –
COc1cccc(OC)c1OCCNCC1CSc2ccccc2O1 (centres unmarked) [Benoxathian hydrochloride] | inhibit TRPM7-mediated cell injury | Yes | −10.32 | 0.359 | – | – | – | –
C[C@@]12C(=O)OC(=O)[C@]1(C)[C@H]1CC[C@@H]2O1 [Cantharidin] | inhibit TRPM7-mediated cell injury | – | −10.178 | 0.7724 | −9.671 | 0.3746 | – | –
CCOc1ccc(Cc2nccc3cc(OCC)c(OCC)cc23)cc1OCC [Ethaverine hydrochloride] | inhibit TRPM7-mediated cell injury | – | – | – | −9.238 | 0.08142 | Yes | –
COc1cc2c(cc1OC)-c1c/c(=N\c3c(C)cc(C)cc3C)n(C)c(=O)n1CC2 [Trequinsin hydrochloride] | inhibit TRPM7-mediated cell injury | Yes | −8.81 | 0.2534 | – | – | – | –
[Gd] [gadolinium, reference compound] | – | – | – | – | – | – | – | OGD-mediated cell death (H9c2 cells): reduced
C[C@H]1O[C@@H](O[C@H]2[C@@H](O)C[C@H](O[C@H]3[C@@H](O)C[C@H](O[C@H]4CC[C@@]5(C)[C@H](CC[C@@H]6[C@@H]5C[C@@H](O)[C@]5(C)[C@@H](C7=CC(=O)OC7)CC[C@]65O)C4)O[C@@H]3C)O[C@@H]2C)C[C@H](O)[C@@H]1O [Digoxin] | – | – | – | – | – | – | – | B Score (murine TRPM7): −5.938; Dose-Response (murine TRPM7): Yes; Verification Ratio (murine TRPM7): 0.7248; found to inhibit TRPM7-mediated cell injury (murine TRPM7): inhibit TRPM7-mediated cell injury
COc1ccc(C[C@H](N)C(=O)N[C@H]2[C@@H](O)[C@H](n3cnc4c(N(C)C)ncnc43)O[C@@H]2CO)cc1 [Puromycin dihydrochloride] | inhibit TRPM7-mediated cell injury | – | – | – | −5.573 | 0.5905 | Yes | –
O=C1c2c(O)ccc(O)c2C(=O)c2c(NCCNCCO)ccc(NCCNCCO)c21 [Mitoxantrone] | inhibit TRPM7-mediated cell injury | Yes | −7.587 | 0.25 | – | – | – | –
CCn1cnc2c(Nc3cccc(Cl)c3)nc(N[C@@H]3CCCC[C@@H]3N)nc21.Cl [CGP-74514A hydrochloride] | inhibit TRPM7-mediated cell injury | Yes | −7.96 | 0.6543 | – | – | – | –
COc1ccc(C[C@H]2NC[C@H](O)[C@H]2OC(C)=O)cc1 [Anisomycin] | inhibit TRPM7-mediated cell injury | – | – | – | −6.683 | 0.4265 | Yes | –
CCN(CC)CCCC(C)Nc1c2ccc(Cl)cc2nc2ccc(OC)cc12 (centres unmarked) [Quinacrine dihydrochloride] | inhibit TRPM7-mediated cell injury | Yes | −5.516 | 0.8254 | – | – | – | –
Ic1ccccc1CNC1C2CCN(CC2)C1C(c1ccccc1)c1ccccc1.O=C(O)C(=O)O [L-703,606 oxalate] | inhibit TRPM7-mediated cell injury | Yes | −8.636 | 0.373 | – | – | – | –
